{"source": "paper PMC8729037", "about": "(European journal of pharmacology, 2019)", "key": {"Nox and Duox enzymes": {"system": "Nox and Duox enzymes", "settings": "ref Moody et al., 2018; Doroshow et al., 2012; cited from earlier work"}, "HER2": {"system": "HER2", "assay": "Western blot, HER2 tyrosine phosphorylation", "format": "cell-based, human", "settings": "100 nM NTS; for Inhibition of NTS-induced HER2 tyrosine phosphorylation (in words): 5 μM DPI or 5 mM Tiron, NCI-H838, Fig. 5"}, "EGFR [1]": {"system": "EGFR", "assay": "Western blot, EGFR tyrosine phosphorylation", "format": "cell-based, human", "settings": "100 nM NTS; for Inhibition of NTS-induced EGFR tyrosine phosphorylation (in words): 5 μM DPI or 5 mM Tiron, NCI-H838, Fig. 5; for Effect on NTS-induced EGFR tyrosine phosphorylation (in words): Fig. 6"}, "ERK": {"system": "ERK", "assay": "Western blot, ERK tyrosine phosphorylation", "format": "cell-based, human", "settings": "100 nM NTS; for Inhibition of NTS-induced ERK tyrosine phosphorylation (in words): 5 μM DPI or 5 mM Tiron, NCI-H838, Fig. 5"}, "[2]": {"system": "c-Src, β-catenin, PYK-2 and the EGFR", "settings": "A549 cells; ref Moody et al., 2014; cited from earlier work"}, "neurotensin receptor 1 [3]": {"molecular_target": "neurotensin receptor 1 (Homo sapiens, UniProt P30989)", "sequence (P30989 whole entry)": "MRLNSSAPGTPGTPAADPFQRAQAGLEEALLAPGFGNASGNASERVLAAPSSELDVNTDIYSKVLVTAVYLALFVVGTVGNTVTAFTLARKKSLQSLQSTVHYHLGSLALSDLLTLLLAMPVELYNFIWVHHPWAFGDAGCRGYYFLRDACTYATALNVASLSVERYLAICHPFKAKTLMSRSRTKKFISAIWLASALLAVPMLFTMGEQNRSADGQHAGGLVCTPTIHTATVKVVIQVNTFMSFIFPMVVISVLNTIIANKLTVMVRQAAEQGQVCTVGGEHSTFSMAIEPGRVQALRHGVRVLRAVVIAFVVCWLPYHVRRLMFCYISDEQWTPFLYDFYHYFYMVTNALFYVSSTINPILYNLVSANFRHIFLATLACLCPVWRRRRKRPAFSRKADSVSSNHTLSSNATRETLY", "assay": "Receptor binding, inhibition of specific"}, "NCI-H838 cells": {"system": "NCI-H838 cells", "assay": "MTT proliferation assay, NCI-H838 cells", "settings": "lapatinib combined with SR48692, Fig. 7"}, "tubulin": {"system": "tubulin", "assay": "Western blot, total tubulin", "format": "cell-based, human", "settings": "lapatinib; control; Fig. 6"}, "EGFR [4]": {"system": "EGFR", "settings": "NSCLC cell lines; ref Moody et al., 2014; cited from earlier work"}, "[5]": {"system": "PC-3M prostate cancer cells", "settings": "ref Valerie et al., 2011; cited from earlier work"}, "neurotensin receptor 1 [6]": {"system": "neurotensin receptor 1", "settings": "colorectal cancer; ref Wang et al., 2010; cited from earlier work"}}}
{"smiles": "c1ccc2c(c1)[I+]c1ccccc1-2", "note": "[DPI, diphenylene iodonium]", "values": [{"measurement": "Inhibition of Nox and Duox enzymes (in words)", "setting": "Nox and Duox enzymes", "result": "inhibits all Nox and Duox enzymes"}, {"measurement": "Inhibition of NTS-induced HER2 tyrosine phosphorylation (in words)", "setting": "HER2", "result": "significantly inhibited"}, {"measurement": "Inhibition of NTS-induced EGFR tyrosine phosphorylation (in words)", "setting": "EGFR [1]", "result": "significantly inhibited"}, {"measurement": "Inhibition of NTS-induced ERK tyrosine phosphorylation (in words)", "setting": "ERK", "result": "significantly inhibited"}]}
{"smiles": "CNC(=O)[C@H](Cc1c[nH]c2ccccc12)NC(=O)[C@@H](CC(=O)NO)CC(C)C", "note": "[GM6001]", "values": [{"measurement": "Effect on neurotensin-induced EGFR tyrosine phosphorylation (in words)", "setting": "[2]", "result": "blocked"}]}
{"smiles": "COc1cc2ncnc(Nc3ccc(F)c(Cl)c3)c2cc1OCCCN1CCOCC1", "note": "[Gefitinib]", "values": [{"measurement": "IC50", "setting": "neurotensin receptor 1 [3]", "result": "> 2000", "unit": "nM"}]}
{"smiles": "CS(=O)(=O)CCNCc1ccc(-c2ccc3ncnc(Nc4ccc(OCc5cccc(F)c5)c(Cl)c4)c3c2)o1", "note": "[Lapatinib]", "values": [{"measurement": "Effect on NTS-induced HER2 tyrosine phosphorylation (in words)", "setting": "HER2; 1 or 10 μM lapatinib, Fig. 6", "result": "significantly reduced"}, {"measurement": "IC50", "setting": "neurotensin receptor 1 [3]", "result": "> 2000", "unit": "nM"}, {"measurement": "Shift of SR48692 dose-response curve (in words)", "setting": "NCI-H838 cells", "result": "shifted the SR48692 dose-response curve to the left"}, {"measurement": "Effect on NTS-induced EGFR tyrosine phosphorylation (in words)", "setting": "EGFR [1]; 0.1 μM lapatinib", "result": "impaired"}, {"measurement": "Effect on NTS-induced EGFR tyrosine phosphorylation (in words)", "setting": "EGFR [1]; 1 or 10 μM lapatinib", "result": "significantly reduced"}, {"measurement": "Effect on total tubulin (in words)", "setting": "tubulin", "result": "no effect"}, {"measurement": "Effect on NTS-induced ERK tyrosine phosphorylation (in words)", "setting": "ERK; 1 or 10 μM lapatinib, Fig. 6", "result": "significantly reduced"}]}
{"smiles": "C[C@@H]1CN([C@H]2CC[C@](C#N)(c3ccc(F)cc3)CC2)CC[C@]1(C(=O)O)c1ccccc1", "note": "[Levocabastine]", "values": [{"measurement": "IC50", "setting": "neurotensin receptor 1 [3]", "result": "> 2000", "unit": "nM"}]}
{"smiles": "CC(C)(C)n1nc(-c2ccc(Cl)cc2)c2c(N)ncnc21", "note": "[PP2]", "values": [{"measurement": "Effect on neurotensin-induced EGFR tyrosine phosphorylation (in words)", "setting": "[2]", "result": "blocked"}]}
{"smiles": "COc1cccc(OC)c1-c1cc(C(=O)NC2(C(=O)O)C3CC4CC(C3)CC2C4)nn1-c1ccnc2cc(Cl)ccc12", "note": "(stereo not drawn) [SR48692]", "values": [{"measurement": "IC50", "setting": "neurotensin receptor 1 [3]", "result": "160 ± 25", "unit": "nM"}, {"measurement": "Effect on neurotensin-induced EGFR tyrosine phosphorylation (in words)", "setting": "EGFR [4]", "result": "reduced"}, {"measurement": "Sensitivity to ionizing radiation (in words)", "setting": "[5]", "result": "enhanced sensitivity to ionizing radiation"}]}
{"smiles": "CCCC(=O)[O-].[Na+]", "note": "[Sodium butyrate]", "values": [{"measurement": "Neurotensin receptor 1 densities (in words)", "setting": "neurotensin receptor 1 [6]", "result": "reduced"}]}
{"smiles": "O=S(=O)(O)c1cc(O)c(O)c(S(=O)(=O)O)c1", "note": "[Tiron]", "values": [{"measurement": "Inhibition of NTS-induced HER2 tyrosine phosphorylation (in words)", "setting": "HER2", "result": "significantly inhibited"}, {"measurement": "Effect on neurotensin-induced EGFR tyrosine phosphorylation (in words)", "setting": "EGFR [4]", "result": "reduced"}, {"measurement": "Inhibition of NTS-induced EGFR tyrosine phosphorylation (in words)", "setting": "EGFR [1]", "result": "significantly inhibited"}, {"measurement": "Inhibition of NTS-induced ERK tyrosine phosphorylation (in words)", "setting": "ERK", "result": "significantly inhibited"}]}
{"smiles": "COc1ccc2c(c1)CC[C@@H]1[C@@H]2CC[C@]2(C)[C@@H](NCCCCCCN3C(=O)C=CC3=O)CC[C@@H]12", "note": "[U73122]", "values": [{"measurement": "Effect on neurotensin-induced EGFR tyrosine phosphorylation (in words)", "setting": "[2]", "result": "blocked"}]}
